Experimental data published in US20070066680A1, “Benzofurans and benzothiophenes” (priority 2003, published 2007).
Marks after values point to notes of the source that are not given here.

How the values were obtained:
insulin secretion = test: Test of insulin secretion according to Endocrinology, 1992 vol. 130 (1) pp. 167-178; type: cell-based; conditions: Rattus norvegicus, INS1; compounds tested at 10^−5 M; read-out: SEC INS1 (% of insulin secretion)
Protocol: Test of Insulin Secretion According to the Method Described in Endocrinology, 1992 vol. 130 (1) pp. 167-178
The insulin-secreting activities are collated in Table B. The compounds according to the invention were tested at a concentration of 10^−5 M.

[1] = tested on: isolated islets of Langerhans; test: Insulin secretion in isolated rat islets of Langerhans, static incubation, RIA; type: cell-based; conditions: 90 minutes incubation, stimulation if factor >= 130%; for Insulin secretion stimulation factor, Product + G2.8 mM: glucose 2.8 mM; for Insulin secretion stimulation factor, Product + G8 mM: glucose 8 mM
Protocol: Study of the Activity on Isolated Rat Islets
Effect of the chemical compounds on insulin secretion as a function of the glucose concentration, in vitro, in isolated islets of Langerhans in static incubation (Table C):
The islets of Langerhans obtained by digestion of exocrine pancreatic tissue with collagenase, and then purified on Ficoll gradient, are incubated for 90 minutes in the presence of two concentrations of glucose, (2.8 mM or 8 mM), in the presence or absence of the chemical compound. The insulin secretion is assayed by RIA in the incubation medium.
The potential of the various chemical compounds to stimulate insulin secretion is estimated by calculating the stimulation factor*.
A compound stimulates the secretion of insulin if this factor is greater than or equal to 130% for a given dose of glucose. [formula] • where: • G=secretion of insulin (pmol/min. islet) in the presence of glucose alone
G+product=secretion of insulin (pmol/min. islet) in the presence of the same concentration of glucose and of the test chemical compound.

NOSTZ diabetic rats = test: Antidiabetic activity (glycaemia) in NOSTZ diabetic rats; type: in vivo, rat; conditions: repeated for 4 days, blood two hours after the fourth treatment
Protocol: Study of the Antidiabetic Activity in NOSTZ rats Effect/Dose of compound 15, in vivo, in the case of NOSTZ diabetic rats (Table D): NOSTZ rats, made diabetic by injection of steptozotocin on the day of birth (Portha et al.; 1974), are treated, orally, daily by administration of 50-100-200 mg/kg of body weight of compound 15, of 200 mg/kg of metformin (reference antidiabetic agent) or of methylcellulose (controls). Blood samples are taken from the anaesthetized animal two hours after the fourth treatment. The glycaemia is measured via the colorimetric method using glucose dehydrogenase. The antidiabetic activity of the compounds of the formula (I) orally was determined on an experimental model of non-insulin-dependent diabetes, induced in rats with steptozotocin. The model of non-insulin-dependent diabetes is obtained in the rats by means of a neonatal injection of steptozotocin. The diabetic rats used are eight weeks old. The animals are housed, from the day of birth to the day of the experiment, in an animal house at a regulated temperature of 21 to 22° C. and subjected to a fixed cycle of light (from 7 a.m. to 7 p.m.) and darkness (from 7 p.m. to 7 a.m.). Their food consisted of a maintenance diet, and water and food were given “ad libitum”, with the exception of fasting two hours before the tests, during which period the food is removed (post-absorptive state). The rats are treated orally for one (D1) or four (D4) days with the test product. Two hours after the final administration of the product and 30 minutes after anaesthetizing the animals with pentobarbital sodium (Nembutal®), a 300 μl blood sample is taken from the end of the tail.

| SMILES | activity at 10 µM (insulin secretion) | also measured |
| --- | --- | --- |
| COc1ccccc1C(=O)COc1c(C(=O)c2ccc(C#N)cc2)sc2ccccc12 [Product 70] | 189% | – |
| N#Cc1ccc(C(=O)c2sc3ccccc3c2OCc2c(Cl)cccc2Cl)cc1 [Product 55] | 174% | – |
| COc1ccccc1C(=O)COc1c(C(=O)c2ccccc2)sc2ccccc12 [Product 3] | 244% | – |
| N#Cc1ccc(C(=O)c2sc3ccccc3c2OCc2cccc(C#N)c2)cc1 [Product 43] | 257% | Insulin secretion stimulation factor, Product + G2.8 mM ([1]; product 10^−5 M): 108%; Insulin secretion stimulation factor, Product + G8 mM ([1]; product 10^−5 M): 135% |
| CS(=O)(=O)c1ccc(COc2c(C(=O)c3ccc(C#N)cc3)sc3ccccc23)cc1 [Product 66] | 202% | – |
| COc1cccc(C(=O)COc2c(C(=O)c3ccccc3)sc3ccccc23)c1 [Product 8] | 193% | – |
| O=C(COc1c(C(=O)c2ccccc2)sc2ccccc12)c1ccc(Cl)cc1 [Product 1] | 206% | Insulin secretion stimulation factor, Product + G2.8 mM ([1]; product 10^−5 M): 98%; Insulin secretion stimulation factor, Product + G8 mM ([1]; product 10^−5 M): 135% |
| N#Cc1ccc(C(=O)c2sc3ccccc3c2OCC(=O)c2ccccc2)cc1 [Product 69] | 179% | – |
| N#Cc1ccc(C(=O)c2sc3ccccc3c2OCc2ccccc2)cc1 [Product 59] | 229% | – |
| COc1ccc(C(=O)COc2c(C(=O)c3ccccc3)sc3ccccc23)c(OC)c1 [Product 14] | 287% | – |
| N#Cc1ccc(C(=O)c2sc3ccccc3c2OCc2ccccc2C#N)cc1 [Product 42] | 283% | – |
| COc1ccccc1C(=O)COc1c(C(=O)c2ccccc2)oc2ccccc12 [Product 86] | 164% | – |
| CN(C)C(=N)N=C(N)N [metformin, reference compound] | – | Percentage of variation of glycaemia relative to the controls (NOSTZ diabetic rats; 200 mg/kg/day orally): −29%** |
| CC(C)(C)C(=O)COc1c(C(=O)c2ccccc2)sc2ccccc12 [Product 15, 1-(2-benzoylbenzo[b]thiophen-3-yloxy)-3,3-dimethylbutan-2-one] | 207% | Insulin secretion stimulation factor, Product + G2.8 mM ([1]; product 10^−5 M): 119%; Insulin secretion stimulation factor, Product + G8 mM ([1]; product 10^−5 M): 152%; Insulin secretion stimulation factor, Product + G2.8 mM ([1]; product 10^−6 M): 125%; Insulin secretion stimulation factor, Product + G8 mM ([1]; product 10^−6 M): 183%; Percentage of variation of glycaemia relative to the controls (NOSTZ diabetic rats; 50 mg/kg/day orally): −13%*; Percentage of variation of glycaemia relative to the controls (NOSTZ diabetic rats; 100 mg/kg/day orally): −23%**; Percentage of variation of glycaemia relative to the controls (NOSTZ diabetic rats; 200 mg/kg/day orally): −18%** |
| Cc1ccc(C(=O)COc2c(C(=O)c3ccc(C#N)cc3)sc3ccccc23)cc1 [Product 72] | 185% | – |
